According to PubChem BioAssay (NCI):
Values joined by “and” are separate entries in the source; they are usually repeats but may differ in a detail not shown here. Identical values can stand only once.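 Grown in 96-well plates, cells were treated for 48 hours with each compound at five concentrations. Insufficient inhibition: endpoint recorded as highest concentration tested. The concentration for 50% growth inhibition is given as GI50. TGI: total growth inhibition.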

Assays:
Assay in all cases: NCI anticancer screen, dose series, 48 h
EKVX NSCLC = test system: EKVX NSCLC
HOP-62 NSCLC = test system: HOP-62 NSCLC
HS 578T breast = test system: HS 578T breast
HT29 colon = test system: HT29 colon
IGROV1 ovarian = test system: IGROV1 ovarian
MCF7 breast = test system: MCF7 breast
MOLT-4 leukemia = test system: MOLT-4 leukemia
PC-3 prostate = test system: PC-3 prostate
SR leukemia = test system: SR leukemia
UACC-62 melanoma = test system: UACC-62 melanoma

SMILES	GI50 (EKVX NSCLC) [µM]	TGI (EKVX NSCLC)	GI50 (HOP-62 NSCLC) [µM]	TGI (HOP-62 NSCLC)	GI50 (HS 578T breast) [µM]	TGI (HS 578T breast)	GI50 (HT29 colon) [µM]	TGI (HT29 colon)	GI50 (IGROV1 ovarian) [µM]	TGI (IGROV1 ovarian)	GI50 (MCF7 breast) [µM]	TGI (MCF7 breast)	GI50 (MOLT-4 leukemia)	TGI (MOLT-4 leukemia)	GI50 (PC-3 prostate) [µM]	TGI (PC-3 prostate)	GI50 (SR leukemia) [µM]	TGI (SR leukemia)	GI50 (UACC-62 melanoma) [µM]	TGI (UACC-62 melanoma)
COc1ccc2nc(C)cc(Sc3nc4ccccc4s3)c2c1	1.61	8 µM	1.26	6.06 µM	0.923	3.57 µM	1.89	7.71 µM	2.2	13.9 µM	1.45	11.1 µM	1.25 µM	7.92 µM	0.288	3 µM	0.432	2.46 µM	0.717	7.51 µM
O=C1C=CC(=O)c2c1ccc1c3ccccc3n(Cc3ccccc3)c21	–	> 100 µM	–	> 100 µM	–	> 100 µM	–	57 µM	–	46.2 µM	–	45.6 µM	–	> 38.4 µM	–	53.3 µM	–	> 28.7 µM	–	67.8 µM
NC1=NC(SCc2ccccc2CCl)c2ncn(Cc3ccccc3CCl)c2N1 (stereo unspecified)	3.14	11.6 µM	1.53	3.16 µM	3.51	> 100 µM	1.88	4.01 µM	1.52	3.57 µM	2.17	19.9 µM	2.04 µM	6.03 µM	1.79	3.52 µM	1.56	6.46 µM	2.54	10.4 µM
COc1cc(C)cc(C(=O)/C=C/c2ccccc2)c1O	–	47.8 µM	–	40.3 µM	–	> 100 µM	–	34.7 µM	–	30.5 µM	–	49 µM	–	69.8 µM	–	49.8 µM	–	77.6 µM	–	33.6 µM
COc1cc(/C=C/C(=O)CC(=O)/C=C/c2cc(OC)c(O)c(OC)c2)cc(OC)c1O	18.7	25 µM and 71.2 µM	19.6	25 µM and > 100 µM	5.73	18 µM and 53.8 µM	26.3	25 µM and > 100 µM	11	10.8 µM and 32.2 µM	19.6	25 µM and > 100 µM	5.1 µM	25 µM and 84.4 µM	–	25 µM and 37.8 µM	7.56	25 µM and > 100 µM	5.51	–
C=C(C(=O)OC)[C@@H]1CC2OC1C(=O)C(C)CCC/C(C)=C/CC[C@@]2(C)O (stereo partly specified)	63.2	> 100 µM	20.6	41.2 µM	36.9	> 100 µM	36.5	> 100 µM	11.3	25.4 µM	43.5	> 100 µM	17.2 µM	54.5 µM	36.8	> 100 µM	5.1	25.1 µM	26.1	74.9 µM
NC(N)=NC(N)=Nc1ccc(C(=O)O)cc1	–	> 100 µM	–	> 100 µM	–	> 100 µM	–	> 100 µM	–	> 100 µM	–	> 100 µM	–	> 100 µM	–	> 100 µM	–	> 100 µM	–	> 100 µM
O=C(O)COc1ccc(OCC(=O)O)cc1	6.43	74.4 µM	0.408	8.53 µM	1.97	13.6 µM	0.709	11.6 µM	1.8	33 µM	0.0567	10.7 µM	0.0557 µM	23.5 µM	2.03	17.2 µM	0.0614	12.7 µM	0.326	2.9 µM
Cc1nn(C)c2ncnc(N/N=C/c3cccc(O)c3O)c12	2.78	> 100 µM	1.08	15.1 µM	2.29	> 100 µM	3.94	> 100 µM	1.78	> 30.4 µM	0.594	> 100 µM	0.323 µM	28.7 µM	0.545	> 100 µM	0.269	16.3 µM	1.69	5.98 µM
COc1cc(Cl)c(CC(=O)c2c[nH]c3ccccc23)cc1OC	–	> 100 µM	–	28.7 µM	–	> 100 µM	–	> 100 µM	–	> 100 µM	–	> 100 µM	–	> 100 µM	–	> 100 µM	–	> 100 µM	–	> 100 µM
CCCCC#Cc1c(I)n(C2OC(CO[Si](C)(C)C(C)(C)C)C3OC(C)(C)OC32)c(=O)n(C(=O)c2ccccc2)c1=O (stereo unspecified)	18.5	38.9 µM	10.7	23 µM	7.17	43.6 µM	28.4	> 100 µM	3.96	13.4 µM	2.14	5.59 µM	5.79 µM	23.6 µM	10.3	22.9 µM	1.69	9.35 µM	17.7	32.2 µM
Cc1ccc2oc(=O)c3c(O)c4cccc(OC5OC(C)C6O[C@@H](c7ccccc7)OC6C5OC5OC(C)C(O)C(O)C5O)c4c4oc(=O)c1c2c34 (stereo partly specified)	0.519	4.09 µM and 2.55 µM	0.105	1.6 µM and 0.734 µM	–	1.97 µM	–	5.12 µM	0.0315	1.39 µM and 1.32 µM	–	2.48 µM	0.00436 µM and 0.0137 µM	0.109 µM and 0.161 µM	–	1.4 µM	0.0174	< 0.0472 µM	–	0.444 µM and 0.432 µM
O=C1OCC2=C1C(c1cccc(C(F)(F)F)c1)c1cc3c(cc1N2CCO)OCCO3 (stereo unspecified)	1.33	> 33.3 µM	1.31	> 33.3 µM	0.915	> 33.3 µM	1.09	> 33.3 µM	2.75	> 33.3 µM	1.09	> 33.3 µM	1.93 µM	> 33.3 µM	1.24	> 33.3 µM	1.04	> 33.3 µM	0.901	> 33.3 µM
C=CC1C(CC2OC(CO)C(O)C(O)C2O)OC=C2C(=O)OCCC21O (stereo unspecified)	39.8	> 100 µM	13.4	35.5 µM	34.6	> 100 µM	2.23	8.02 µM	8.36	53.1 µM	21.6	> 100 µM	3.78 µM	30.5 µM	11	27.9 µM	3.32	26.5 µM	21.2	53.3 µM
Nc1nc(Cl)nc2c1ncn2C1OC(CO)C(O)C1F (stereo unspecified)	1.46	> 100 µM	0.109	22.4 µM	4.71	> 80.7 µM	0.445	> 100 µM	> 18	> 100 µM	0.163	> 100 µM	–	> 100 µM	99.7	> 100 µM	1.67	5.26 µM	0.145	1.7 µM
CN1CCN(C(=O)c2ccc(NC(=O)Nc3ccc(-c4nc(N5CCOCC5)c5cccn5n4)cc3)cc2)CC1	0.042	0.703 µM	0.025	0.232 µM	0.0177	0.082 µM	0.0487	–	0.0255	1.2 µM	< 0.012	2.73 µM	0.0443 µM	2.11 µM	0.0488	19.3 µM	0.0465	8.7 µM	0.034	0.189 µM
COC(=O)CC1(O)C=CC(=O)C=C1	–	15.5 µM	–	18.1 µM	–	39.4 µM	–	17.6 µM	–	5.04 µM	–	15.2 µM	–	7.25 µM	–	6.35 µM	–	> 100 µM	–	5 µM
Cc1ccc(S(=O)(=O)n2cc([C@@]3(O)C[C@H](CSC#N)OC3=O)c3ccccc32)cc1	> 100	> 100 µM	25.1	57.4 µM	8.7	32.6 µM	11.9	55 µM	7.54	22.4 µM	2.8	18.1 µM	1.71 µM	4.52 µM	17.8	50.4 µM	0.41	4.76 µM	15	35.5 µM
Cc1c(Nc2nccc3cc(CN4CC[C@@H](O)C4)cnc23)cccc1-c1cccc(-c2nc3cc(CN4CC[C@@H](C(=O)O)C4)cc(C#N)c3o2)c1C	> 100	> 100 µM	> 100	> 100 µM	15.1	> 100 µM	2.09	4.64 µM	8.45	> 100 µM	1.52	4.26 µM	2.72 µM	9.08 µM	4.17	> 100 µM	2.95	24.7 µM	15.7	38.1 µM
COc1ccc(Nc2ncnc3ccc(-c4cncc(NS(C)(=O)=O)c4)cc23)cc1Cl	1.99	6.82 µM	2.64	22.6 µM	1.26	5.18 µM	2.07	6.93 µM	1.4	4.46 µM	1.63	8.01 µM	1.5 µM	4 µM	2.83	16.6 µM	1.42	5.86 µM	2.14	8.31 µM
